Laboratory results as given in patent US10620222B2, “Electrified compositions for determining the risk of developing adolescent idiopathic scoliosis through the use of GI protein receptor” (CHU Sainte-Justine, priority 2008, dated 2020).
“And” between values parts separate entries of the source, which are not always exact repeats. Equal values may be shown once.

System: receptors coupled to Gi proteins expressed on osteoblasts
Assay: Cellular Dielectric Spectroscopy (CDS, CELLKEY) response to Gi-coupled receptor ligands in osteoblasts from control and AIS subjects
Type: cell-based, human
Parameters: % of control / % of control signal, Group 1, min diff. / % of control signal, Group 2, min diff. / % of control signal, Group 3, min diff.: concentration or dose not given beside the values; dZiec value / Absolute dZiec, control value of max diff. (maximal control value): unit not given here
Conditions: for dZiec value / Absolute dZiec, control value of max diff. (maximal control value) / Absolute dZiec, control value of min diff. (minimal control value) / Absolute dZiec, Group 1, max diff. (group value) / Absolute dZiec, Group 1, min diff. (group value) / Absolute dZiec, Group 2, max diff. (group value) / Absolute dZiec, Group 2, min diff. (group value) / Absolute dZiec, Group 3, max diff. (group value) / Absolute dZiec, Group 3, min diff. (group value): 300 μM ligand; for dZiec value: n1, n2 of Exper. 1-3; for Absolute dZiec, control value of max diff. (maximal control value) / Absolute dZiec, control value of min diff. (minimal control value): osteoblasts of control subjects; for Absolute dZiec, control value of max diff. (maximal control value) / Absolute dZiec, control value of min diff. (minimal control value) / Absolute dZiec, Group 1, max diff. (group value) / Absolute dZiec, Group 1, min diff. (group value) / Absolute dZiec, Group 2, max diff. (group value) / Absolute dZiec, Group 2, min diff. (group value) / Absolute dZiec, Group 3, max diff. (group value) / Absolute dZiec, Group 3, min diff. (group value): from FIGS. 11A-11F; for Absolute dZiec, Group 1, max diff. (group value) / Absolute dZiec, Group 1, min diff. (group value) / % of control signal, Group 1, max diff. / % of control signal, Group 1, min diff. / Absolute dZiec, Group 2, max diff. (group value) / Absolute dZiec, Group 2, min diff. (group value) / % of control signal, Group 2, max diff. / % of control signal, Group 2, min diff. / Absolute dZiec, Group 3, max diff. (group value) / Absolute dZiec, Group 3, min diff. (group value) / % of control signal, Group 3, max diff. / % of control signal, Group 3, min diff.: osteoblasts; for Absolute dZiec, Group 1, max diff. (group value): AIS Group 1 value of max diff.; for Absolute dZiec, Group 1, min diff. (group value): AIS Group 1 value of min diff.; for % of control signal, Group 1, max diff.: AIS Group 1 vs maximal control value; for % of control signal, Group 1, min diff.: AIS Group 1 vs minimal control value; for Absolute dZiec, Group 2, max diff. (group value): AIS Group 2 value of max diff.; for Absolute dZiec, Group 2, min diff. (group value): AIS Group 2 value of min diff.; for % of control signal, Group 2, max diff.: AIS Group 2 vs maximal control value; for % of control signal, Group 2, min diff.: AIS Group 2 vs minimal control value; for Absolute dZiec, Group 3, max diff. (group value): AIS Group 3 value of max diff.; for Absolute dZiec, Group 3, min diff. (group value): AIS Group 3 value of min diff.; for % of control signal, Group 3, max diff.: AIS Group 3 vs maximal control value; for % of control signal, Group 3, min diff.: AIS Group 3 vs minimal control value
Description: Bone specimens were obtained intraoperatively from vertebras (varying from T3 to L4 according to the surgical procedure performed), while with trauma cases used as non-scoliotic controls bone specimens were obtained from other anatomical sites (tibia or femur, and in one case from an iliac crest biopsy). Osteoblasts and myoblasts isolated as previously described (Moreau A, Wang D S, Forget S et al. Melatonin Signaling Dysfunction in Adolescent Idiopathic Scoliosis. Spine 2004; 29:1772-81; Azeddine et al., 2007 Molecular determinants of melatonin signaling dysfunction in adolescent idiopathic scoliosis. Clin Orthop Relat Res. 2007, 462:45-52), were cultured at 37° C./5% CO2 in MEM supplemented with 10% fetal bovine serum (FBS) and 100 μg/mL streptomycin. Prior to the experiment, cells were seeded into the CELLKEY™ label-free cellular analysis system standard 96-well plates at a density of 5×10^4/well and grown for 24 h and incubated in standard conditions (37° C./5% CO2). In some plates, Pertussis toxin (100 ng/mL, Sigma, Oakville, ON, Canada) treatment was performed 16 h before the CDS assay. Following overnight incubation, plates were placed onto the CELLKEY™ label-free cellular analysis system and growth medium was exchanged to assay buffer (Hanks, Balanced Salt Solution containing 20 mM HEPES and 0.1% BSA) before starting the experiment. Cells were then allowed to equilibrate at room temperature for 30 min. Pre-addition measurements were made for 5 min to obtain a baseline reading. […] The quick update rate (2 s.) of the CELLKEY™ label-free cellular analysis system allows detection of these immediate changes in impedance. Impedance measurements were collected for 10 min to 15 min at 28° C. after ligand addition to monitor cellular responses to ligand interaction and to generate CELLKEY™ label-free cellular analysis system response profiles that are characteristic of the signaling mechanisms used.
The response induced by the various ligands to their receptors was measured by cellular dielectric spectroscopy (CDS) using the CELLKEY™ label-free cellular analysis technology. (MDS Sciex, San Francisco, Calif., USA). The CELLKEY™ label-free cellular analysis system integrates a proprietary impedance measurement system, custom 96-well microliter plate, onboard 96-well fluidics, and environment control and custom acquisition and analysis software in a full solution package (MDS Sciex) that is compatible with commercially available robotic platforms. Small voltage at 24 frequencies, from 1 KHz to 10 MHz, is applied to a monolayer of cells settled in a 96-well microplate containing electrodes at the bottom, and the resultant current is measured at an update rate of 2 s. […] Onboard fluid additions and exchanges are handled by 96-well head fluid delivery device with a range of 5-500 μL. In addition to the cell plate location, the CELLKEY™ label-free cellular analysis system includes two additional stations for 96- or 384-well compound plates. All aspects of assay set up, execution, and data acquisition and analysis are controlled by CELLKEY™ label-free cellular analysis software.
The minimal (min) and maximal (max) values represent the mean of three independent measurements performed in duplicate (six values in total) for a given patient/control subject. […] Duplicates (n1 and n2) of three independent experiments are presented.

O=C(O)/C=C\C(=O)O.c1ccc(N2CCN(CCCOc3ccc4c(c3)OCO4)CC2)cc1 [BP554, 1-[3-(3,4-Methylenedioxyphenoxy)propyl]-4-phenyl-piperazine maleate]
% of control (osteoblasts of AIS#1020 (Group 3) relative to CTR#60, maleate): 44.5% and 42.3% and 48.5% and 45.1% and 43.7% and 46.6% | dZiec value (osteoblasts of AIS#1020 (Group 3), maleate): 62.57 and 64.57 and 78.63 and 76.63 and 66.6 and 74.6 | % of control (osteoblasts of AIS#1198 (Group 3 in Table II) relative to CTR#69, maleate): 41.1% and 45.0% and 40.6% and 43.5% | dZiec value (osteoblasts of AIS#1198 (Group 3 in Table II), maleate): 59.83 and 64.83 and 74.63 and 70.63 and 63.73 and 71.73 | % of control (osteoblasts of AIS#1385 (Group 2) relative to CTR#69, maleate): 50.4% and 43.4% and 51.9% and 49.0% and 46.4% and 44.8% | dZiec value (osteoblasts of AIS#1385 (Group 2), maleate): 73.41 and 68.41 and 86.15 and 85.15 and 72.78 and 73.78 | % of control (osteoblasts of AIS#1468 (Group 3) relative to CTR#61, maleate): 63.8% and 66.8% and 67.5% and 69.1% and 66.0% and 67.8% | dZiec value (osteoblasts of AIS#1468 (Group 3), maleate): 84.51 and 96.51 and 104.4 and 112.4 and 95.45 and 103.45 | % of control (osteoblasts of AIS#1474 (Group 1) relative to CTR#60, maleate): 28.4% and 27.5% and 31.8% and 29.7% and 28.7% and 29.1% | dZiec value (osteoblasts of AIS#1474 (Group 1), maleate): 39.94 and 41.94 and 51.45 and 50.45 and 43.7 and 46.7 | % of control (osteoblasts of AIS#1488 (Group 1) relative to CTR#69, maleate): 30.2% and 29.2% and 32.7% and 30.0% and 28.8% and 32.3% | dZiec value (osteoblasts of AIS#1488 (Group 1), maleate): 44.06 and 46.06 and 54.24 and 52.24 and 45.15 and 53.15 | % of control (osteoblasts of AIS#1513 (Group 3) relative to CTR#61, maleate): 68.8% and 71.4% and 73.3% and 74.6% and 71.5% and 72.9% | dZiec value (osteoblasts of AIS#1513 (Group 3), maleate): 91.15 and 103.15 and 113.38 and 121.38 and 103.27 and 111.27 | % of control (osteoblasts of AIS#1549 (Group 1) relative to CTR#61, maleate): 19.7% | % of control (osteoblasts of AIS#1550 (Group 2) relative to CTR#60, maleate): 53.1% and 56.8% and 56.5% and 58.5% and 55.2% and 57.4% | dZiec value (osteoblasts of AIS#1550 (Group 2), maleate): 74.64 and 86.64 and 91.46 and 99.46 and 84.05 and 92.05 | dZiec value (osteoblasts of control CTR#60, maleate): 140.49/— and 152.49/— and 162/— and 170/— and 152.25/— and 160.25/— | dZiec value (osteoblasts of control CTR#61, maleate): 132.45/— and 144.45/— and 154.6/— and 162.6/— and 144.53/— and 152.53/— | dZiec value (osteoblasts of control CTR#69, maleate): 145.69/— and 157.69/— and 165.87/— and 173.87/— and 156.78/— and 164.78/— | Absolute dZiec, control value of max diff. (maximal control value): 166 | Absolute dZiec, control value of min diff. (minimal control value): 128 | Absolute dZiec, Group 1, max diff. (group value): 32 | Absolute dZiec, Group 1, min diff. (group value): 49 | % of control signal, Group 1, max diff.: 19% | % of control signal, Group 1, min diff.: 38% | Absolute dZiec, Group 2, max diff. (group value): 67 | Absolute dZiec, Group 2, min diff. (group value): 88 | % of control signal, Group 2, max diff.: 40% | % of control signal, Group 2, min diff.: 69% | Absolute dZiec, Group 3, max diff. (group value): 99 | Absolute dZiec, Group 3, min diff. (group value): 107 | % of control signal, Group 3, max diff.: 60% | % of control signal, Group 3, min diff.: 84%

O=C(NC1CCCCC1)c1cn(CCN2CCOCC2)c2cc(Cl)ccc2c1=O [CB65, N-Cyclohexyl-7-chloro-1-[2-(4-morpholinyl)ethyl]quinolin-4(1H)-one-3-carboxamide]
% of control (osteoblasts of AIS#1020 (Group 3) relative to CTR#60): 43.1% and 47.5% and 45.6% and 43.5% and 46.2% | dZiec value (osteoblasts of AIS#1020 (Group 3)): 61.81 and 73.81 and 74.95 and 82.95 and 69.38 and 77.38 | % of control (osteoblasts of AIS#1198 (Group 3 in Table II) relative to CTR#69): 51.5% and 55.2% and 57.8% and 59.7% and 55.1% and 57.3% | dZiec value (osteoblasts of AIS#1198 (Group 3 in Table II)): 72.90 and 84.90 and 94.57 and 102.57 and 84.73 and 92.73 | % of control (osteoblasts of AIS#1385 (Group 2) relative to CTR#69): 46.7% and 50.9% and 51.8% and 54.1% and 49.8% and 52.3% | dZiec value (osteoblasts of AIS#1385 (Group 2)): 66.15 and 78.15 and 84.86 and 92.86 and 76.50 and 84.50 | % of control (osteoblasts of AIS#1468 (Group 3) relative to CTR#61): 57.0% and 60.3% and 64.0% and 65.6% and 61.0% and 62.9% | dZiec value (osteoblasts of AIS#1468 (Group 3)): 82.16 and 94.16 and 107.91 and 115.91 and 96.04 and 104.04 | % of control (osteoblasts of AIS#1474 (Group 1) relative to CTR#60): 25.3% and 24.7% and 26.9% and 24.6% and 23.5% and 27.2% | dZiec value (osteoblasts of AIS#1474 (Group 1)): 36.30 and 38.30 and 46.79 and 44.79 and 37.55 and 45.55 | % of control (osteoblasts of AIS#1488 (Group 1) relative to CTR#69): 29.2% and 28.2% and 33.2% and 30.5% and 28.5% and 32.1% | dZiec value (osteoblasts of AIS#1488 (Group 1)): 41.30 and 43.30 and 54.43 and 52.43 and 43.87 and 51.87 | % of control (osteoblasts of AIS#1513 (Group 3) relative to CTR#61): 74.8% and 76.7% and 76.6% and 77.6% and 75.9% and 77.1% | dZiec value (osteoblasts of AIS#1513 (Group 3)): 107.73 and 119.73 and 129.10 and 137.10 and 119.41 and 127.41 | % of control (osteoblasts of AIS#1549 (Group 1) relative to CTR#61): 25.3% and 18.2% and 19.1% and 22.8% and 19.3% and 23.2% | dZiec value (osteoblasts of AIS#1549 (Group 1)): 36.48 and 28.48 and 32.23 and 40.23 and 30.36 and 38.36 | % of control (osteoblasts of AIS#1550 (Group 2) relative to CTR#60): 38.5% and 36.8% and 38.3% and 35.5% and 35.6% and 38.7% | dZiec value (osteoblasts of AIS#1550 (Group 2)): 55.13 and 57.13 and 66.49 and 64.49 and 56.81 and 64.81 | dZiec value (osteoblasts of control CTR#60): 143.28/— and 155.28/— and 173.77/— and 181.77/— and 159.53/— and 167.53/— | dZiec value (osteoblasts of control CTR#61): 144.08/— and 156.08/— and 168.59/— and 176.59/— and 157.34/— and 165.34/— | dZiec value (osteoblasts of control CTR#69): 141.68/— and 153.68/— and 163.73/— and 171.73/— and 153.70/— and 161.70/— | Absolute dZiec, control value of max diff. (maximal control value): 169 | Absolute dZiec, control value of min diff. (minimal control value): 138 | Absolute dZiec, Group 1, max diff. (group value): 34 | Absolute dZiec, Group 1, min diff. (group value): 47 | % of control signal, Group 1, max diff.: 20% | % of control signal, Group 1, min diff.: 34% | Absolute dZiec, Group 2, max diff. (group value): 60 | Absolute dZiec, Group 2, min diff. (group value): 88 | % of control signal, Group 2, max diff.: 36% | % of control signal, Group 2, min diff.: 64% | Absolute dZiec, Group 3, max diff. (group value): 100 | Absolute dZiec, Group 3, min diff. (group value): 123 | % of control signal, Group 3, max diff.: 55% | % of control signal, Group 3, min diff.: 89%
